# Measured values as given in ChEMBL document CHEMBL1201862, “PubChem BioAssay data set” (2004).
#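 Grown in 96-well plates, cells were treated for 48 hours with each compound at five concentrations. Insufficient inhibition: endpoint recorded as highest concentration tested. Here, GI50 denotes the concentration required for 50% inhibition of growth.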 Activity calls are given as the source filed them. Cut-off read from the data, not from the text of the source: active = GI50 up to about 1.1 µM and inactive = higher.
# Tests used:
# Assay in all cases: DTP human tumour cell line panel, 48 h
# [1] = test system: OVCAR-3
# [2] = test system: Malme-3M
# [3] = test system: DMS-114
# [4] = test system: RPMI-8226
# [5] = test system: LOX IMVI
# [6] = test system: HL-60
# [7] = test system: U-251
# [8] = test system: SK-MEL-5
# [9] = test system: NCI-H23
# [10] = test system: CAKI-1
# [11] = test system: HOP-62
# [12] = test system: NCI-H460
# [13] = test system: CCRF-CEM
# [14] = test system: UACC-257
# [15] = test system: OVCAR-5
# [16] = test system: EKVX
# [17] = test system: DLD-1
# [18] = test system: HCT-15
# [19] = test system: M14
# [20] = test system: HT-29
# [21] = test system: A549
# [22] = test system: IGROV-1
# [23] = test system: HOP-18
# [24] = test system: SK-MEL-2
# [25] = test system: SN12C
# [26] = test system: SK-OV-3
# [27] = test system: UACC-62
# [28] = test system: SW-620
# [29] = test system: NCI-H522
# [30] = test system: UO-31
# [31] = test system: 786-0
# [32] = test system: ACHN
# [33] = test system: KM-20L2
# [34] = test system: SNB-19
# [35] = test system: RXF 393
# [36] = test system: SK-MEL-28
# [37] = test system: SNB-78
# [38] = test system: LXFL 529
# [39] = test system: OVCAR-8
# [40] = test system: K562
# [41] = test system: MOLT-4
# [42] = test system: SF-295
# [43] = test system: DMS-273
# [44] = test system: HCC 2998
# [45] = test system: A498
# [46] = test system: SNB-75
# [47] = test system: COLO 205
# [48] = test system: NCI-H226
# [49] = test system: TK-10
# [50] = test system: SR
# [51] = test system: OVCAR-4
# [52] = test system: KM12
# [53] = test system: HCT-116
# [54] = test system: SF-268
# [55] = test system: M19-MEL
# [56] = test system: HOP-92
# [57] = test system: SF-539
smiles,measurement,setting,value
O=C1C(=O)C2(CC1S(=O)(=O)c1ccccc1)c1ccccc1-c1ccccc12 (stereo not drawn),GI50,[1],> 10 µM (inactive)
same,GI50,[2],> 10 µM (inactive)
same,GI50,[3],22 µM (inactive)
same,GI50,[4],26.4 µM (inactive)
same,GI50,[5],18.5 µM (inactive)
same,GI50,[6],27.9 µM (inactive)
same,GI50,[7],18.6 µM (inactive)
same,GI50,[8],14.6 µM (inactive)
same,GI50,[9],15.5 µM (inactive)
same,GI50,[10],29 µM (inactive)
same,GI50,[11],21.1 µM (inactive)
same,GI50,[12],18.6 µM (inactive)
same,GI50,[13],24.7 µM (inactive)
same,GI50,[14],17.8 µM (inactive)
same,GI50,[15],23 µM (inactive)
same,GI50,[16],28.8 µM (inactive)
same,GI50,[17],24.8 µM (inactive)
same,GI50,[18],16.7 µM
same,GI50,[19],13.9 µM (inactive)
same,GI50,[20],27 µM (inactive)
same,GI50,[21],24.7 µM (inactive)
same,GI50,[22],23.1 µM (inactive)
same,GI50,[23],> 10 µM (inactive)
same,GI50,[24],18.1 µM (inactive)
same,GI50,[25],28.8 µM (inactive)
same,GI50,[26],38.9 µM (inactive)
same,GI50,[27],16.6 µM (inactive)
same,GI50,[28],34.6 µM (inactive)
same,GI50,[29],22.5 µM (inactive)
same,GI50,[30],19.7 µM (inactive)
same,GI50,[31],26.6 µM (inactive)
same,GI50,[32],28.6 µM (inactive)
same,GI50,[33],44 µM (inactive)
same,GI50,[34],20.6 µM (inactive)
same,GI50,[35],18.7 µM (inactive)
same,GI50,[36],19.7 µM (inactive)
same,GI50,[37],17.5 µM (inactive)
same,GI50,[38],16.3 µM (inactive)
same,GI50,[39],17.9 µM (inactive)
same,GI50,[40],27.6 µM (inactive)
same,GI50,[41],20.4 µM (inactive)
same,GI50,[42],21.3 µM (inactive)
same,GI50,[43],19.5 µM (inactive)
same,GI50,[44],14.7 µM (inactive)
same,GI50,[45],19.1 µM (inactive)
same,GI50,[46],37.3 µM (inactive)
same,GI50,[47],12.7 µM (inactive)
same,GI50,[48],37.4 µM (inactive)
same,GI50,[49],25.8 µM (inactive)
same,GI50,[50],24 µM (inactive)
same,GI50,[51],48.9 µM (inactive)
same,GI50,[52],19.2 µM (inactive)
same,GI50,[53],17.3 µM (inactive)
same,GI50,[54],27.4 µM (inactive)
CC1CCC(=O)C(C(O)CC2CC(=O)N(c3ccccc3)C(=O)C2)C1 (stereo not drawn),GI50,[1],> 100 µM (inactive)
same,GI50,[2],> 100 µM (inactive)
same,GI50,[3],> 100 µM (inactive)
same,GI50,[4],> 100 µM (inactive)
same,GI50,[5],> 100 µM (inactive)
same,GI50,[6],> 100 µM (inactive)
same,GI50,[7],> 100 µM (inactive)
same,GI50,[9],> 100 µM (inactive)
same,GI50,[10],> 100 µM (inactive)
same,GI50,[11],> 100 µM (inactive)
same,GI50,[12],> 100 µM (inactive)
same,GI50,[13],> 100 µM (inactive)
same,GI50,[14],> 100 µM (inactive)
same,GI50,[15],> 100 µM (inactive)
same,GI50,[16],> 100 µM (inactive)
same,GI50,[17],> 100 µM (inactive)
same,GI50,[19],> 100 µM (inactive)
same,GI50,[20],> 100 µM (inactive)
same,GI50,[21],> 100 µM (inactive)
same,GI50,[55],> 100 µM (inactive)
same,GI50,[22],> 100 µM (inactive)
same,GI50,[23],> 100 µM (inactive)
same,GI50,[25],> 100 µM (inactive)
same,GI50,[26],> 100 µM (inactive)
same,GI50,[56],> 100 µM (inactive)
same,GI50,[27],> 100 µM (inactive)
same,GI50,[28],> 100 µM (inactive)
same,GI50,[29],> 100 µM (inactive)
same,GI50,[30],> 100 µM (inactive)
same,GI50,[31],> 100 µM (inactive)
same,GI50,[32],> 100 µM (inactive)
same,GI50,[33],> 100 µM (inactive)
same,GI50,[34],> 100 µM (inactive)
same,GI50,[35],> 100 µM (inactive)
same,GI50,[36],> 100 µM (inactive)
same,GI50,[37],> 100 µM (inactive)
same,GI50,[38],> 100 µM (inactive)
same,GI50,[39],> 100 µM (inactive)
same,GI50,[40],> 100 µM (inactive)
same,GI50,[41],> 100 µM (inactive)
same,GI50,[42],> 100 µM (inactive)
same,GI50,[43],> 100 µM (inactive)
same,GI50,[44],> 100 µM (inactive)
same,GI50,[45],> 100 µM (inactive)
same,GI50,[46],> 100 µM (inactive)
same,GI50,[47],> 100 µM (inactive)
same,GI50,[48],> 100 µM (inactive)
same,GI50,[57],> 100 µM (inactive)
same,GI50,[49],> 100 µM (inactive)
same,GI50,[50],> 100 µM (inactive)
same,GI50,[51],> 100 µM (inactive)
same,GI50,[52],> 100 µM (inactive)
same,GI50,[53],> 100 µM (inactive)
same,GI50,[54],> 100 µM (inactive)
